Assay results from patent publication US5905074A, “Vitamin D derivative” (Hoffmann-La Roche Inc., priority 1995, dated 1999).

Assays:
[1] = Calcium liability (tolerance test in mice); settings: mouse, in vivo, sc; daily subcutaneous, 4 consecutive days; dose resulting in zero weight gain during 5 day treatment period; read-out: highest tolerated dose (mice)
Text: This routine test gives a global picture of calcemic liability. Profound changes in calcium homeostasis strongly affect the weight development of the animals. This parameter was used as a primary test for tolerance.
Mice (25-30 g body weight) received daily subcutaneous administrations of the vitamin D derivative for 4 consecutive days. Body weight was registered just before and at the end of a […] treatment period. The "highest tolerated dose" (HTD) in mice is the dose which results in zero weight gain during this treatment period.

human VDR = target: T1, human VDR (Homo sapiens, UniProt P11473); test: VDR activation (transcription activation assay, luciferase reporter); assay type: cell-based; settings: half-maximal induction of luciferase activity
T1 construct: expressed in transfected cells; host or cells: COS cells or CV-1 cells (VDR expressed in pSG5)
T1 sequence (P11473 1-427): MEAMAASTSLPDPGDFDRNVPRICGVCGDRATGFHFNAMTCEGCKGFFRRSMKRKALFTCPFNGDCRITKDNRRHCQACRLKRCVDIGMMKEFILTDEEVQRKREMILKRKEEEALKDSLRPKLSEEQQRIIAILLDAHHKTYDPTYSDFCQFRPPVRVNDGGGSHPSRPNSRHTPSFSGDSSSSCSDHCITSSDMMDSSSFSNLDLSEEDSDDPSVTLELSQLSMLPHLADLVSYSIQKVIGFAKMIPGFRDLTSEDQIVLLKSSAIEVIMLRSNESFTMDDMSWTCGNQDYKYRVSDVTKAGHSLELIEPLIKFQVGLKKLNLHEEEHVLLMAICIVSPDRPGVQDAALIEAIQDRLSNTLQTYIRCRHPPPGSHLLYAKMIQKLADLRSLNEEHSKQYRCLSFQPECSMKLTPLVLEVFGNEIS
Text: In order to measure the activation of the vitamin D receptor (VDR) by vitamin D analogs in cells a transcription activation assay was used. COS cells or CV-1 cells were cotransfected with the human VDR (expressed in pSG5) and a reporter gene containing three response elements (VDRE3) from the rat osteocalcine gene, the thymidine kinase basal promoter, and the luciferase reporter gene.

HL-60 cells = test: HL-60 differentiation (NBT reduction, oxidative burst potential); assay type: cell-based; settings: Homo sapiens, HL-60, 72 h; 3 days; 50% of maximal differentiation achieved with 100-1000 nM calcitriol
Description: The induction of differentiation of HL-60 cells was assayed by measuring their oxidative burst potential via the reduction of NBT (Nitro-bluetetraolium) according to a modified procedure of E. Pick et al. in J. Reticul.
30,000 cells/90 μl of RPMI/FCS were seeded into flat-bottomed microtiter wells. Immediately after seeding, 10 μl of vitamin D derivatives diluted in complete medium (RPMI/FCS) were added to yield final concentrations between 10^-11 and 10^-6 M (starting from 1 mM stock solutions in ethanol which were stored at -20° and protected from light). After 3 days, the medium was removed with a multichannel pipette and replaced with 100 μl of NBT solution (1 mg/ml in Dulbecco's PBS with 200 nM phorbol myristate acetate (PMA)). Following an incubation of 1 hour at 37° C. the NBT solution was removed and 100 μl of 10% SDS in 0.01N HCl was added. After further incubation at 37° C. for 6 hours (or more), the amount of the reduced NBT was quantified photometrically at 540 nm using an automated plate reader. The mean of 3 wells was calculated.
Values were expressed as percent of maximal differentiation achieved with 100-1000 nM calcitriol in the same experiment.

Structure (SMILES)	MTD [1] [µg/kg]	EC50 (human VDR; COS cells) [pM]	EC50 (human VDR; CV-1 cells) [pM]	EC50 (HL-60 cells) [pM]
C=C1/C(=C\C=C2/CCC[C@]3(C)[C@@H]([C@H](C)CCCC(C)(C)O)CCC[C@@H]23)C[C@@H](O)C[C@@H]1O [Compound of formula I, (1R,3S)-5-[(Z)-2-[(E)-(4aR,5R,8aR)-5-[(R)-5-Hydroxy-1,5-dimethyl-hexyl]-4a-methyl-octahydro-naphtalen-1-ylidene]-ethylidene]-4-methylene-cyclohexane-1,3-diol]	0.6	1200	40	370
C=C1/C(=C\C=C2/CCC[C@]3(C)[C@@H]([C@H](C)CCCC(C)(C)O)CC[C@@H]23)C[C@@H](O)C[C@@H]1O [Calcitriol, reference compound]				5000
